Laboratory results as given in patent US20250346574A1, “PYRIDINYL SUBSTITUTED OXOISOINDOLINE COMPOUNDS FOR THE TREATMENT OF CANCER” (Bristol-Myers Squibb Company, priority 2021, published 2025).

Molecular target: Helios (Homo sapiens, UniProt Q96SW2+Q9UKS7)
Assay: Helios Human T Regulatory Cells Degradation Assay
Type: cell-based
Parameters: fluorescently labelled antibodies against Helios in 1× Permeabilization buffer; endogenous in cells; host or cells: cryopreserved human T regulatory cells
Settings: cryopreserved human T regulatory cells, incubated 20 hours, Helios-APC antibody staining, flow cytometry; read-out: hTreg Helios DC50
Method: Cryopreserved human T regulatory cells were thawed in RPMI+10% FBS+20 ng/mL IL-2. After being spun at 1200 rpm for 5 mins, the cells were resuspended in RPMI+10% FBS+20 ng/mL and rested at 37° C. with 5% CO2 for 3 hours. […] Cell cultures were incubated for 20 hours at 37° C. and 5% CO2. In order to facilitate analysis, cell cultures were spun down at 1200 rpm for 5 minutes and the supernatant was discarded using an EL406 plate washer. After washing three times with 70 μL PBS, cell pellets were resuspended in 50 μL of near IR viability staining solution (Life Technologies, Cat #L34975) and incubated for 30 minutes on ice protected from light. Cells were washed three times with 70 μL PBS+0.5% BSA using an EL406 plate washer. […] Subsequently, 30 μL of 1× Permeabilization buffer was added prior to centrifuging the cells and discarding the supernatant. Stained cells were resuspended in 30 μL of flow cytometry staining buffer (PBS+0.5% BSA) and analyzed using an Intellicyt Ique Plus flow cytometer.

Chain of Helios (Q9UKS7 whole entry): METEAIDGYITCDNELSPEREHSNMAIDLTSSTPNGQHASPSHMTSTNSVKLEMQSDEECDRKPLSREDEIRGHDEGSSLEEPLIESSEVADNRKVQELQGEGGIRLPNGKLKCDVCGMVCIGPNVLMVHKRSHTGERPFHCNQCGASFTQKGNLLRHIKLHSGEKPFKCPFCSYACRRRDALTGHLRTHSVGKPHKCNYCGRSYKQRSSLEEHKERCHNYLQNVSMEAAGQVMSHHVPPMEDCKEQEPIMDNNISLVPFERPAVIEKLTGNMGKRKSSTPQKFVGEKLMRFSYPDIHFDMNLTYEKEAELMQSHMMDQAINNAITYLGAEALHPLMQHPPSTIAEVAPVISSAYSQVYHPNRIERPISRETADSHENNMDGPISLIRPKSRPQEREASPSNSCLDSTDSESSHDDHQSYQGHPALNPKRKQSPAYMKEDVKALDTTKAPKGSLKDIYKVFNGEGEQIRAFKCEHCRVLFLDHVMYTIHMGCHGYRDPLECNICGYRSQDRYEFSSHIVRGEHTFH
Chain of Helios (Q96SW2 whole entry): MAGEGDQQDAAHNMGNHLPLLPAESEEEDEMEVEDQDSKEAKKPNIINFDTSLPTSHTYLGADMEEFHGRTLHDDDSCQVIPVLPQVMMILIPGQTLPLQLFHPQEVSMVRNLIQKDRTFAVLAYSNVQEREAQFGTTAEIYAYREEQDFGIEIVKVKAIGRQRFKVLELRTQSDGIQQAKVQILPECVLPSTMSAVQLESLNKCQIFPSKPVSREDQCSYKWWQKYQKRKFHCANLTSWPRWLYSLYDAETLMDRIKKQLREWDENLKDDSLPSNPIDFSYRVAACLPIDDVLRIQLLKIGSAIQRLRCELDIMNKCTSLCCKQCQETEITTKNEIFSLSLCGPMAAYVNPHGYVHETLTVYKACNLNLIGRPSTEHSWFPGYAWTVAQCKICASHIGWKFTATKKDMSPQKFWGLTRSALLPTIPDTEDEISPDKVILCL
Chain of Helios (Q16531 whole entry partner): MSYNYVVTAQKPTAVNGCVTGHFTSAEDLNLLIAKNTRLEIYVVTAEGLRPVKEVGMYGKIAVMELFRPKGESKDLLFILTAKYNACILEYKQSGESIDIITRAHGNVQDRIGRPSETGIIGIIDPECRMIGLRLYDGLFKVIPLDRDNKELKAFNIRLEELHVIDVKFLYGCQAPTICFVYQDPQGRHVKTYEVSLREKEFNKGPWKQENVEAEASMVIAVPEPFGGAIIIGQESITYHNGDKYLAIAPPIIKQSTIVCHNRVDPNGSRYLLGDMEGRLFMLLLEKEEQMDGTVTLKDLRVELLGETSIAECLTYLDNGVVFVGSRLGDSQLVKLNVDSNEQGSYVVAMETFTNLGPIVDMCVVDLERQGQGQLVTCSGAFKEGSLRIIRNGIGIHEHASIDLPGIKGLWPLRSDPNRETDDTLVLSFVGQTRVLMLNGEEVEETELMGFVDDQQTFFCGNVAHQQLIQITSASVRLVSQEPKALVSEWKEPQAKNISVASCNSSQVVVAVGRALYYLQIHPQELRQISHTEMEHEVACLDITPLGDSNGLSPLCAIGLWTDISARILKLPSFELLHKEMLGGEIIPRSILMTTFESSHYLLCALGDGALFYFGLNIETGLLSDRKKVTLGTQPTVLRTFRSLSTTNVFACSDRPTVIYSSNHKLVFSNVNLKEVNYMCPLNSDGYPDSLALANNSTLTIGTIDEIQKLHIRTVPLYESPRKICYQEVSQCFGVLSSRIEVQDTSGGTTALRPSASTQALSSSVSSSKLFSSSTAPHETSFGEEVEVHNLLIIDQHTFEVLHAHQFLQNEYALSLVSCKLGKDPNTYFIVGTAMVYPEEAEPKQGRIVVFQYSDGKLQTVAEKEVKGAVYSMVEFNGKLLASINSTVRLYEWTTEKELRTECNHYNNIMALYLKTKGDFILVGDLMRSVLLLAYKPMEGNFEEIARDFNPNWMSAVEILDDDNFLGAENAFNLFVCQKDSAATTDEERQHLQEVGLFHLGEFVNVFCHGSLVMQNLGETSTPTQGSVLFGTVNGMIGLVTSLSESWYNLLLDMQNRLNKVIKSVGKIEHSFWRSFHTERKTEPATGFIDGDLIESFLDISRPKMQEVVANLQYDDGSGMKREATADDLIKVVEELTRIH

Row | Structure (SMILES) | DC50
1 | CC1CC(O)CCN1Cc1ccnc(-c2ccc3c(c2)CN(C2CCC(=O)NC2=O)C3=O)c1F (single isomer, unassigned) [Example 212, 3-(5-(3-fluoro-4-((4-hydroxy-2-methylpiperidin-1-yl)methyl)pyridin-2-yl)-1-oxoisoindolin-2-yl)piperidine-2,6-dione] | 653 nM
2 | CC(C)(C)OC(=O)[C@@H]1C[C@@H](OC(C)(C)C)CN1Cc1ccnc(-c2ccc3c(c2)CN(C2CCC(=O)NC2=O)C3=O)c1F (single isomer, unassigned) [Example 214] | 3.5 nM
3 | CC1(O)CC2CN(Cc3ccnc(-c4ccc5c(c4)CN(C4CCC(=O)NC4=O)C5=O)c3)CC2C1 (stereo in doubt) [Example 147, (3S)-3-(5-(4-((5-hydroxy-5-methylhexahydrocyclopenta[c]pyrrol-2(1H)-yl)methyl)pyridin-2-yl)-1-oxoisoindolin-2-yl)piperidine-2,6-dione] | 11.5 nM
4 | O=C1CCC(N2Cc3cc(-c4nccc(CN5CC6(CCC6)C5)c4F)ccc3C2=O)C(=O)N1 (centres unmarked) [Example 88, 3-(5-(4-((2-azaspiro[3.3]heptan-2-yl)methyl)-3-fluoropyridin-2-yl)-1-oxoisoindolin-2-yl)piperidine-2,6-dione] | 3.4 nM
5 | CC(C)(O)C1CN(Cc2ccnc(-c3ccc4c(c3)CN(C3CCC(=O)NC3=O)C4=O)c2F)C1 (centres unmarked) [Example 89, 3-(5-(3-fluoro-4-((3-(2-hydroxypropan-2-yl)azetidin-1-yl)methyl)pyridin-2-yl)-1-oxoisoindolin-2-yl)piperidine-2,6-dione] | 18.4 nM
6 | C[C@H]1[C@H](O)CN1Cc1ccnc(-c2ccc3c(c2)CN(C2CCC(=O)NC2=O)C3=O)c1F (stereo partly drawn) [Example 90, 3-(5-(3-fluoro-4-(((2S,3R)-3-hydroxy-2-methylazetidin-1-yl)methyl)pyridin-2-yl)-1-oxoisoindolin-2-yl)piperidine-2,6-dione] | 454 nM
7 | O=C1CCC(N2Cc3cc(-c4nccc(CN5CCC(O)(c6ccccc6)CC5)c4F)ccc3C2=O)C(=O)N1 (centres unmarked) [Example 91, 3-(5-(3-fluoro-4-((4-hydroxy-4-phenylpiperidin-1-yl)methyl)pyridin-2-yl)-1-oxoisoindolin-2-yl)piperidine-2,6-dione] | ≥ 10000 nM
8 | CC(C)(O)C1CCN(Cc2cc(-c3ccc4c(c3)CN(C3CCC(=O)NC3=O)C4=O)ncc2F)CC1 (centres unmarked) [Example 92, 3-(5-(5-fluoro-4-((4-(2-hydroxypropan-2-yl)piperidin-1-yl)methyl)pyridin-2-yl)-1-oxoisoindolin-2-yl)piperidine-2,6-dione] | 1.2 nM
9 | O=C1CCC(N2Cc3cc(-c4cc(CN5CC6(CCC6)C5)c(F)cn4)ccc3C2=O)C(=O)N1 (centres unmarked) [Example 93, 3-(5-(4-((2-azaspiro[3.3]heptan-2-yl)methyl)-5-fluoropyridin-2-yl)-1-oxoisoindolin-2-yl) piperidine-2,6-dione] | 1.7 nM
10 | CC(C)(O)[C@H]1CCCN1Cc1ccnc(-c2ccc3c(c2)CN(C2CCC(=O)NC2=O)C3=O)c1Cl (stereo partly drawn) [Example 96, 3-(5-(3-chloro-4-(((R)-2-(2-hydroxypropan-2-yl)pyrrolidin-1-yl)methyl)pyridin-2-yl)-1-oxoisoindolin-2-yl)piperidine-2,6-dione] | 6.6 nM
11 | CC(C)(O)C1CN(Cc2ccnc(-c3ccc4c(c3)CN(C3CCC(=O)NC3=O)C4=O)c2Cl)C1 (centres unmarked) [Example 97, 3-(5-(3-chloro-4-((3-(2-hydroxypropan-2-yl)azetidin-1-yl)methyl)pyridin-2-yl)-1-oxoisoindolin-2-yl) piperidine-2,6-dione] | 17.1 nM
12 | COCC1CCCN(Cc2ccnc(-c3ccc4c(c3)CN(C3CCC(=O)NC3=O)C4=O)c2)C1 (centres unmarked) [Example 99, 3-(5-(4-((3-(methoxymethyl)piperidin-1-yl)methyl)pyridin-2-yl)-1-oxoisoindolin-2-yl)piperidine-2,6-dione] | 2 nM
13 | O=C1CCC(N2Cc3cc(-c4cc(CN5CCC6(CC5)COC6)ccn4)ccc3C2=O)C(=O)N1 (centres unmarked) [Example 100, 3-(5-(4-((2-oxa-7-azaspiro[3.5]nonan-7-yl)methyl)pyridin-2-yl)-1-oxoisoindolin-2-yl)piperidine-2,6-dione] | 3.2 nM
14 | O=C1CCC(N2Cc3cc(-c4cc(CN5C[C@@H]6C(CO)[C@@H]6C5)ccn4)ccc3C2=O)C(=O)N1 (stereo partly drawn) [Example 101, 3-(5-(4-(((1R,5S,6r)-6-(hydroxymethyl)-3-azabicyclo[3.1.0]hexan-3-yl)methyl)pyridin-2-yl)-1-oxoisoindolin-2-yl)piperidine-2,6-dione] | 4.2 nM
15 | O=C1CCC(N2Cc3cc(-c4cc(CN5CC[C@@H](CO)C5)ccn4)ccc3C2=O)C(=O)N1 (stereo partly drawn) [Example 102, 3-(5-(4-(((R)-3-(hydroxymethyl)pyrrolidin-1-yl)methyl)pyridin-2-yl)-1-oxoisoindolin-2-yl)piperidine-2,6-dione] | 8.1 nM
16 | O=C1CCC(N2Cc3cc(-c4cc(CN5Cc6cnc(Cl)cc6C5)ccn4)ccc3C2=O)C(=O)N1 (centres unmarked) [Example 103, 3-(5-(4-((6-chloro-1,3-dihydro-2H-pyrrolo[3,4-c]pyridin-2-yl)methyl)pyridin-2-yl)-1-oxoisoindolin-2-yl)piperidine-2,6-dione] | 4110 nM
17 | CC(C)(O)[C@H]1CCN(Cc2ccnc(-c3ccc4c(c3)CN(C3CCC(=O)NC3=O)C4=O)c2)C1 (stereo partly drawn) [Example 104, 3-(5-(4-(((S)-3-(2-hydroxypropan-2-yl)pyrrolidin-1-yl)methyl)pyridin-2-yl)-1-oxoisoindolin-2-yl)piperidine-2,6-dione] | 4.2 nM
18 | O=C1CCC(N2Cc3cc(-c4cc(CN5CC[C@H](CO)C5)ccn4)ccc3C2=O)C(=O)N1 (stereo partly drawn) [Example 105, 3-(5-(4-(((S)-3-(hydroxymethyl)pyrrolidin-1-yl)methyl)pyridin-2-yl)-1-oxoisoindolin-2-yl) piperidine-2,6-dione] | 0.4 nM
19 | CC(C)(O)[C@@H]1CCN(Cc2ccnc(-c3ccc4c(c3)CN(C3CCC(=O)NC3=O)C4=O)c2)C1 (stereo partly drawn) [Example 106, 3-(5-(4-(((R)-3-(2-hydroxypropan-2-yl)pyrrolidin-1-yl)methyl)pyridin-2-yl)-1-oxoisoindolin-2-yl)piperidine-2,6-dione] | 6 nM
20 | CC(O)C1CCN(Cc2ccnc(-c3ccc4c(c3)CN(C3CCC(=O)NC3=O)C4=O)c2)C1 (centres unmarked) [Example 107, 3-(5-(4-((3-(1-hydroxyethyl)pyrrolidin-1-yl)methyl)pyridin-2-yl)-1-oxoisoindolin-2-yl)piperidine-2,6-dione] | 5.8 nM
21 | CC(O)C1CCN(Cc2ccnc(-c3ccc4c(c3)CN(C3CCC(=O)NC3=O)C4=O)c2)CC1 (centres unmarked) [Example 108, 3-(5-(4-((4-(1-hydroxyethyl)piperidin-1-yl)methyl)pyridin-2-yl)-1-oxoisoindolin-2-yl)piperidine-2,6-dione] | 1.4 nM
22 | O=C1CCC(N2Cc3cc(-c4nccc(CN5CC[C@H](CO)C5)c4F)ccc3C2=O)C(=O)N1 (stereo partly drawn) [Example 109, 3-(5-(3-fluoro-4-(((S)-3-(hydroxymethyl)pyrrolidin-1-yl)methyl)pyridin-2-yl)-1-oxoisoindolin-2-yl)piperidine-2,6-dione] | 21.3 nM
23 | CC(C)(O)[C@H]1CCN(Cc2ccnc(-c3ccc4c(c3)CN(C3CCC(=O)NC3=O)C4=O)c2F)C1 (stereo partly drawn) [Example 110, 3-(5-(3-fluoro-4-(((S)-3-(2-hydroxypropan-2-yl)pyrrolidin-1-yl)methyl)pyridin-2-yl)-1-oxoisoindolin-2-yl)piperidine-2,6-dione] | 9.8 nM
24 | CC(C)(O)[C@@H]1CCN(Cc2ccnc(-c3ccc4c(c3)CN(C3CCC(=O)NC3=O)C4=O)c2F)C1 (stereo partly drawn) [Example 111, 3-(5-(3-fluoro-4-(((R)-3-(2-hydroxypropan-2-yl)pyrrolidin-1-yl)methyl)pyridin-2-yl)-1-oxoisoindolin-2-yl) piperidine-2,6-dione] | 10.4 nM
25 | CC(O)C1CCN(Cc2ccnc(-c3ccc4c(c3)CN(C3CCC(=O)NC3=O)C4=O)c2F)C1 (centres unmarked) [Example 112, 3-(5-(3-fluoro-4-((3-(1-hydroxyethyl)pyrrolidin-1-yl)methyl)pyridin-2-yl)-1-oxoisoindolin-2-yl)piperidine-2,6-dione] | 9.5 nM
26 | CC(O)C1CCN(Cc2ccnc(-c3ccc4c(c3)CN(C3CCC(=O)NC3=O)C4=O)c2F)CC1 (centres unmarked) [Example 113, 3-(5-(3-fluoro-4-((4-(1-hydroxyethyl)piperidin-1-yl)methyl)pyridin-2-yl)-1-oxoisoindolin-2-yl) piperidine-2,6-dione] | 13.9 nM
27 | O=C1CCC(N2Cc3cc(-c4nccc(CN5CC[C@H](O)C5)c4F)ccc3C2=O)C(=O)N1 (stereo partly drawn) [Example 114, 3-(5-(3-fluoro-4-(((S)-3-hydroxypyrrolidin-1-yl)methyl)pyridin-2-yl)-1-oxoisoindolin-2-yl)piperidine-2,6-dione] | 23.5 nM
28 | C[C@@H]1c2c(ccc(-c3cc(CN4CC[C@@H](CO)C4)ccn3)c2F)C(=O)N1[C@H]1CCC(=O)NC1=O [Example 133, (S)-3-((R)-4-fluoro-5-(4-(((R)-3-(hydroxymethyl)pyrrolidin-1-yl)methyl)pyridin-2-yl)-3-methyl-1-oxoisoindolin-2-yl)piperidine-2,6-dione] | 23.1 nM
29 | C[C@@H]1c2c(ccc(-c3cc(CN4CCC(O)(c5ccccc5)C4)ccn3)c2F)C(=O)N1[C@H]1CCC(=O)NC1=O (stereo partly drawn) [Example 139, (3S)-3-((3R)-4-fluoro-5-(4-((3-hydroxy-3-phenylpyrrolidin-1-yl)methyl)pyridin-2-yl)-3-methyl-1-oxoisoindolin-2-yl)piperidine-2,6-dione] | 367 nM
